# Results taken from patent publication US20100227853A1, “INHIBITORS OF CYCLIC AMP PHOSPHODIESTERASES” (Trustees of Boston College, priority 2008, published 2010).
# Assays:
# PDE7A = PDE7A (Homo sapiens, UniProt Q13946); assay: 5FOA growth assay in fission yeast strain expressing PDE7A; type: cell-based; parameters: targets used in the assays are full-length proteins (as opposed to simply the catalytic domain); expressed in transfected cells; host or cells: Schizosaccharomyces pombe, PDE gene integrated in place of cgs2; settings: high throughput 5FOA growth screen
# Sequence of PDE7A (Q13946 whole entry, the tested form may be a part): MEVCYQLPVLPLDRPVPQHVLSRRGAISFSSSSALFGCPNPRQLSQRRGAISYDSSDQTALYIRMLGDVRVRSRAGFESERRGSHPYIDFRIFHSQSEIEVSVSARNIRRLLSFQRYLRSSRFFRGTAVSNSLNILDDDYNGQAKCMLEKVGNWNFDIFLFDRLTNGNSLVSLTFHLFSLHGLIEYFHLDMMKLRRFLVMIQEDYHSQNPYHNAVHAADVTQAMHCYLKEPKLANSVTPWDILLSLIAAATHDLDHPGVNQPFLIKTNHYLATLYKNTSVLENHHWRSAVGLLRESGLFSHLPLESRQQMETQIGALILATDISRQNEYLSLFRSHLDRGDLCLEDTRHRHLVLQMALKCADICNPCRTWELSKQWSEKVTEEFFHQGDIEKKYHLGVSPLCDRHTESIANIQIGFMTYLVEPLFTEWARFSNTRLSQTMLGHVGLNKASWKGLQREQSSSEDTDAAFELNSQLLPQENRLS
# Outline: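 Growth stimulation, reported as composite Z scores, was read as OD600 after 48 h at 30 °C in 5FOA medium. Before this, reporter (fbp1-ura4) yeast were grown at 30 °C in EMM with 0–2.5 mM cAMP or 0.5/1.0 mM cGMP to repress the reporter, then exposed to 100 nl pinned compound (stocks generally 10 mM).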
# PDE4B3 = biological target: T1, PDE4B3 (Mus musculus, UniProt Q8VBU5); assay: 5FOA growth assay in fission yeast strain expressing PDE4B3; type: cell-based, Murine; settings: high throughput 5FOA growth screen
# T1 construct: targets used in the assays are full-length proteins (as opposed to simply the catalytic domain); expressed in transfected cells; host or cells: Schizosaccharomyces pombe, PDE gene integrated in place of cgs2
# T1 sequence (Q8VBU5 1-721): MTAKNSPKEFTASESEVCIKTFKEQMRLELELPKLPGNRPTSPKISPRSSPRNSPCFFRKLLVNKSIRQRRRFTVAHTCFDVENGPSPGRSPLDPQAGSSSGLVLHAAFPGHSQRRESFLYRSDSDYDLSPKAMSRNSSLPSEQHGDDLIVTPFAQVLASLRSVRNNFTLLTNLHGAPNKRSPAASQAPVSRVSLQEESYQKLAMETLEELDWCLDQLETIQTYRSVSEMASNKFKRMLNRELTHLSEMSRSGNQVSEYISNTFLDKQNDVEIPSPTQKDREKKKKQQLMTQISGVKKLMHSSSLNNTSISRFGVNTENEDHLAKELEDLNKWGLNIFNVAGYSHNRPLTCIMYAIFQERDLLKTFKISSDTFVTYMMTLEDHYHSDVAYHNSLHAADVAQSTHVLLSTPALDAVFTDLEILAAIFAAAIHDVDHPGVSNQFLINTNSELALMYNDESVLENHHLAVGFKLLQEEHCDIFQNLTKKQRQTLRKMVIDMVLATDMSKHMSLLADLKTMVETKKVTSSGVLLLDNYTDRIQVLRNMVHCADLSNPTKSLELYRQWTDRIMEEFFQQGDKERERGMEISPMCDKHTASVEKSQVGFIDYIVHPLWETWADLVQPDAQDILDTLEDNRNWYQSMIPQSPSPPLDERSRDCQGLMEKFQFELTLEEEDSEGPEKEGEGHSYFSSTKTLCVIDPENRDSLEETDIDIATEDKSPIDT
# Outline: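 Readout is OD600 after 48 h at 30° C in 5FOA medium, starting from 0.5–4×10^5 cells/ml; 5 mM cAMP served as positive control. Yeast expressing mouse PDE4A1 or PDE4B3 with an fbp1-ura4 reporter was first grown to exponential phase in EMM plus 0.5–2.5 mM cAMP. Hits were scored by composite Z scores.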
Compound,"Composite Z score, PDE7A (PDE7A)","Composite Z score, PDE4B3 (PDE4B3)"
CCOC(=O)c1sc2nc(C)nc(N(C)Cc3ccccc3)c2c1C [Compound 2007L04],0.2354,0.2682
Cc1nc(NCCc2ccccc2)c2c3c(sc2n1)CCCC3 [Compound 2008G09],0.03,0.0156
O=C(/C=C/c1ccccc1)Nc1ncnc2sc3c(c12)CCC3 [Compound 2008K11],0.9074,0.0615
COc1ccc(CCNc2ncnc3sc4c(c23)CCCC4)cc1 [Compound 2012B19],26.421,43.053
O=C(Nc1ncnc2sc3c(c12)CCCCC3)c1ccc(F)cc1 [Compound 2012F09],30.877,35.319
CC(C)CC(Nc1ncnc2sc3c(c12)CCC3)C(=O)O (centres unmarked) [Compound 2012H20],−0.757,0.1698
Cc1cc(C)c(C)c(S(=O)(=O)N2CCN(c3ncnc4sc5c(c34)CCCC5)CC2)c1C [Compound 2012L13],−0.684,−0.543
O=C(O)CCNc1ncnc2sc3c(c12)CCCC3 [Compound 2012O16],1.8846,−0.716
CCOC(CNc1nc(C)nc2sc3c(c12)CCCC3)OCC [Compound 2040D04],−0.593,4.66
CCOC(=O)c1sc2nc(Cc3ccccc3)nc(NCCC3CCCCC3)c2c1C [Compound 2040F07],1.5898,5.0875
Cc1nc(N2CCCCC2)c2c(C)c(C(=O)Nc3cccc(C(F)(F)F)c3)sc2n1 [Compound 2040F10],−1.481,16.5
Cc1c(C(=O)NCCC(C)C)sc2ncnc(N3CCOCC3)c12 [Compound 2040F13],−0.598,0.9277
Cc1c(C(=O)NCCC2CCCCC2)sc2ncnc(N3CCCCC3C)c12 (centres unmarked) [Compound 2040H10],1.3549,−1.056
COc1cc(OC)c(NC(=O)c2sc3ncnc(N4CCCCC4C)c3c2C)cc1Cl (centres unmarked) [Compound 2040J10],0.6002,1.7278
CCN(CC)c1ncnc2sc(C(=O)N(C)C3CCCCC3)c(C)c12 [Compound 2040J12],−0.165,5.3667
CCN(CC)c1nc(C)nc2sc(C(=O)Nc3cc(Cl)ccc3OC)c(C)c12 [Compound 2040L12],0.6002,3.2214
Cc1nc(N2CCC(C)CC2)c2c(C)c(C(=O)N3CCN(c4ccc(F)cc4)CC3)sc2n1 [Compound 2040N10],0.7021,3.1975
CCN(CC)c1nc(C)nc2sc(C(=O)N3CCCCCC3)c(C)c12 [Compound 2040N12],−1.037,12.239
CCOC(=O)c1ccccc1NC(=O)c1sc2nc(C)nc(N(CC)CC)c2c1C [Compound 2040P12],1.3653,1.0041
Cc1c(C(=O)N(C)Cc2ccccc2)sc2ncnc(N3CCN(c4ccccc4)CC3)c12 [Compound 2041G21],−1.371,33.162
COc1ccc(NC(=O)c2sc3nc(C)nc(N(C)c4ccc(C(C)C)cc4)c3c2C)c(OC)c1 [Compound 2041I04],0.7201,−0.545
Cc1c(C(=O)N2CCCCCC2)sc2ncnc(N3CCN(c4ccccc4)CC3)c12 [Compound 2041I21],−0.933,7.48
CCC(C)NC(=O)c1sc2nc(C)nc(N(C)c3ccc(C(C)C)cc3)c2c1C (centres unmarked) [Compound 2041K04],−1.377,−0.456
COc1cccc(NC(=O)c2sc3ncnc(N4CCc5ccccc5C4)c3c2C)c1 [Compound 2041K21],0.4852,4.5126
OCCNc1ncnc2sc3c(c12)CCCC3 [Compound 2051H22],−0.346,0.936
